Results on 102 compounds are retold here after PubChem BioAssay AID1033 (Sanford-Burnham Center for Chemical Genomics, 2008).

The assay deals with Chaperone protein DnaK (Escherichia coli (strain K12)) (UniProt P0A6Y8). Put plainly: E. coli DnaK SBD ligand binding – biophysical, NMR, chaperone (AID 1033). The settings on record: Purified DnaK SBD.

SMILES strings stand for the structures. Activity calls are given as the source filed them. No rule for the calls is given here.

Sequence of Chaperone protein DnaK (Escherichia coli (strain K12)) (P0A6Y8 whole entry, looked up): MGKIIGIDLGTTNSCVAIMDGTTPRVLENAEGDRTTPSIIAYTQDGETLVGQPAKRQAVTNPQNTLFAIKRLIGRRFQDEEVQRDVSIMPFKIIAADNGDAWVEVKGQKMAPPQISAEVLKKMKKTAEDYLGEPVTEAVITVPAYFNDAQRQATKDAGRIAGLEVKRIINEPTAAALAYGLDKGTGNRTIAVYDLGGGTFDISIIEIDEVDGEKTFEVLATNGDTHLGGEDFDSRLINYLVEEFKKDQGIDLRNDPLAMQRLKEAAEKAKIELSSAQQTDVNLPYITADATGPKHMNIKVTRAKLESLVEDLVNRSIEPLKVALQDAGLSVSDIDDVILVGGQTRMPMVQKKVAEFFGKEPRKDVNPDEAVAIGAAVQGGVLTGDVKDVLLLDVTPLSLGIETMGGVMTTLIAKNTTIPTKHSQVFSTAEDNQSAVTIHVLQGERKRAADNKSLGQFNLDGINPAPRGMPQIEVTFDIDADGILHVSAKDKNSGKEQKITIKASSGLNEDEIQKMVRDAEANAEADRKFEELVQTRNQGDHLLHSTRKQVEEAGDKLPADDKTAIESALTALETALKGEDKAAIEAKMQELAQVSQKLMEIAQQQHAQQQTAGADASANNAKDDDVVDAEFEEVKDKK

Consider `O=C1CC(NCc2ccco2)C(=O)NN1` (configuration not stated), for which the Kd was > 4 mM (inactive).

`COC(=O)CCC(C)[C@H]1CCC2C3C(C[C@H](O)[C@@]21C)[C@@]1(C)CC[C@@H](O)C[C@H]1C[C@H]3O` (some centres not stated): the Kd is > 4 mM (inactive).

Turning to `CSc1ccc(C(=S)N2CCN(C)CC2)cc1`, the Kd is > 4 mM (inactive).

As to `CCNC(=O)CC[C@H](N)C(=O)O`, the Kd was > 4 mM (inactive).

With `CCN1CCC(NC2CCCCNC2=O)CC1` (configuration not stated), the Kd is > 4 mM (inactive).

With `Cc1nc(-c2ccc(C(=O)N3CCOCC3)cc2)cs1`, the Kd is > 4 mM (inactive).

As to `Nc1ccc(Oc2ccccc2)nc1`, the Kd was > 4 mM (inactive).

With `COCC(=O)N1CCCc2ccccc21`, the Kd was > 4 mM (inactive).

Consider `COC1=CC(=O)C[C@@H](C)[C@]12Oc1c(Cl)c(OC)cc(OC)c1C2=O`, for which the Kd was > 4 mM (inactive).

With `CC(C)c1ccc2c(c1)CCC1C(C)(C(N)=O)CCCC21C` (configuration not stated), the Kd was > 4 mM (inactive).

Regarding `O=C(O)CCc1ccc2c(c1)OCO2`, the Kd was > 4 mM (inactive).

As to `O=C(c1ccccc1)c1cncc(Br)c1`, the Kd was > 4 mM (inactive).

Take `C[C@]12CC(=O)C3C(CC[C@@H]4C[C@H](O)CC[C@]34C)C1CC[C@]2(O)C(=O)CO` (some centres not stated): the Kd is > 4 mM (inactive).

Regarding `CC(=O)O[C@H]1C(=O)[C@@]2(C)C([C@H](OC(=O)c3ccccc3)[C@]3(O)C[C@H](OC(=O)[C@H](O)[C@@H](NC(=O)c4ccccc4)c4ccccc4)C(C)=C1C3(C)C)[C@]1(OC(C)=O)CO[C@@H]1C[C@@H]2O` (some centres not stated), the Kd was > 4 mM (inactive).

On to `O=C(O)C1CNc2ccccc2O1` (configuration not stated), for which the Kd was > 4 mM (inactive).

Consider `COc1ccc(C2NC(C(=O)O)CS2)cc1` (configuration not stated), for which the Kd was > 4 mM (inactive).

For `CN1CCN(c2nc3c(c(=O)[nH]2)CCCC3)CC1`, the Kd is > 4 mM (inactive).

For `Nc1nncn1C(=O)c1c(Cl)cccc1Cl`, the Kd was > 4 mM (inactive).

As to `O=S1(=O)CCC(NC(=S)N2CCOCC2)C1` (configuration not stated), the Kd was > 4 mM (inactive).

Consider `CCOC(=O)C1CCNCC1`, for which the Kd is > 4 mM (inactive).

As for `CCOC(=O)c1c(C)n([O-])c2ccccc2[n+]1=O`, the Kd was > 4 mM (inactive).

As for `Nc1nc(N)nc(N2C(=O)c3ccccc3C2=O)n1`, the Kd is > 4 mM (inactive).

Take `CCC(=O)Nc1cccc(NC(C)=O)c1`: the Kd is > 4 mM (inactive).

As for `CC(=O)OCC[C@H](C)CCC=C(C)C`, the Kd is > 4 mM (inactive).

Consider `O=C(Nc1ccc(N2CCOCC2)cc1)C1CC1`, for which the Kd was > 4 mM (inactive).

As to `Nc1ncnc2c1ncn2[C@@H]1O[C@H](CO)[C@@H](O)[C@H]1O`, the Kd was > 4 mM (inactive).

In the case of `NC(CCC(=O)Nc1ccc([N+](=O)[O-])cc1)C(=O)O` (configuration not stated), the Kd is > 4 mM (inactive).

As for `COc1ccc(CN2CCOCC2)c(C)c1C`, the Kd is > 4 mM (inactive).

As to `COc1c2ccoc2cc2oc(=O)ccc12`, the Kd was > 4 mM (inactive).

For the compound `CNC(=O)C(=O)Nc1c(C)cccc1C`, the Kd was > 4 mM (inactive).

Consider `CCOC(=O)c1cnc2cc(C)nn2c1C`, for which the Kd is > 4 mM (inactive).

For the compound `O=c1cc(-c2ccc(O)cc2)oc2cc(O)cc(O)c12`, the Kd was > 4 mM (inactive).

Take `COC(=O)c1noc(-c2ccc(OC)cc2)n1`: the Kd was > 4 mM (inactive).

As for `Cc1ccc(N2NC(=O)CC2=O)cc1C`, the Kd is > 4 mM (inactive).

For `O=C(NCc1n[nH]c(=O)c2ccccc12)C1CC1`, the Kd was > 4 mM (inactive).

For `CN(C)C(=O)Oc1ccc(-c2nnco2)cc1`, the Kd is > 4 mM (inactive).

For the compound `CC(=O)Oc1c(C)c(C)c2c(c1C)CCC(C)(CCCC(C)CCCC(C)CCCC(C)C)O2` (configuration not stated), the Kd was > 4 mM (inactive).

Turning to `CCCCCc1c2c(cc(O)c1C(=O)O)OC(=O)c1c(cc(OC)cc1C(=O)CCCC)O2`, the Kd was > 4 mM (inactive).

For the compound `O=C1C2C3C=CC(C3)C2C(=O)N1c1cccnc1` (configuration not stated), the Kd was > 4 mM (inactive).

As for `CC(=O)NC(O)C(=O)c1ccccc1` (configuration not stated), the Kd was > 4 mM (inactive).

Take `Cc1noc(C)c1C(=O)Nc1cccnc1`: the Kd is > 4 mM (inactive).

On to `Cc1sc2nc3n(c(=O)c2c1C)CCCS3`, for which the Kd is > 4 mM (inactive).

For `O=C(O)C1CC(=O)N(C2Cc3ccccc3C2)C1` (configuration not stated), the Kd was > 4 mM (inactive).

With `CC(C)(C)c1cc(NC(=O)c2cccnc2)no1`, the Kd is > 4 mM (inactive).

Take `O=C1C(=O)N(CNc2ncccn2)c2ccccc21`: the Kd was > 4 mM (inactive).

As to `NC(=O)CN1CC(=O)NC(=O)C1`, the Kd is > 4 mM (inactive).

In the case of `COc1c2occc2cc2ccc(=O)oc12`, the Kd was > 4 mM (inactive).

`COc1ccc(-c2ccc(=O)n(CC(N)=O)n2)cc1`: the Kd was > 4 mM (inactive).

Turning to `COC1=CC(C)[C@@H]2C[C@H]3OC(=O)C[C@H]4C(C)=C(OC)C(=O)C([C@@]34C)[C@@]2(C)C1=O` (some centres not stated), the Kd was > 4 mM (inactive).

Take `NC1=NC(=O)C(Cc2ccccc2)S1` (configuration not stated): the Kd was > 4 mM (inactive).

In the case of `O=C(Nc1cnc2ccccn2c1=O)c1ccc(F)cc1`, the Kd was > 4 mM (inactive).

With `CCCc1nc2ccccc2c2nc(N)nn12`, the Kd is > 4 mM (inactive).

As to `Cc1ccc(C(=O)n2cnnc2N)cc1C`, the Kd was > 4 mM (inactive).

As to `O=C1NC2NC(=O)N(c3ccccc3)C2N1` (configuration not stated), the Kd was > 4 mM (inactive).

`NC(=O)Cc1nc(-c2ccccc2)cs1`: the Kd is > 4 mM (inactive).

Turning to `O=C1Cc2ccccc2N1c1ccccc1`, the Kd is > 4 mM (inactive).

As to `c1ccc(Cc2nnc3sc(-c4ccncc4)nn23)cc1`, the Kd is > 4 mM (inactive).

Consider `O=C(c1ccc(F)cc1)C1CCNCC1`, for which the Kd is > 4 mM (inactive).

Regarding `CSc1ccccc1NC(=O)c1ccco1`, the Kd is > 4 mM (inactive).

As for `O=S(=O)(Cc1ccc(Cl)cc1)N1CCCC1`, the Kd was > 4 mM (inactive).

For the compound `Cc1cc(NC(=O)c2ocnc2C)no1`, the Kd is > 4 mM (inactive).

For `CC(=O)N1N=C(N)SC1c1cccnc1` (configuration not stated), the Kd was > 4 mM (inactive).

Turning to `Cc1cn2c(-c3cccnc3)nnc2s1`, the Kd is > 4 mM (inactive).

`Nc1ccccc1OC(F)(F)F`: the Kd is > 4 mM (inactive).

With `Cn1cnc2c(cnn2-c2ccccc2)c1=O`, the Kd was > 4 mM (inactive).

Regarding `COc1cc(C/C=C/c2ccccc2)c(OC)cc1O`, the Kd was > 4 mM (inactive).

Take `O=C(O)c1cncc(-c2ccccc2)c1`: the Kd is > 4 mM (inactive).

`Cc1ccc(C(C)C)cc2c(C)ccc1-2`: the Kd is > 4 mM (inactive).

For `c1ccc(-n2nnnc2-n2cnc3ccccc32)cc1`, the Kd was > 4 mM (inactive).

As to `O=c1c(O)cccc2cc(O)c(O)c(O)c12`, the Kd was > 4 mM (inactive).

`CCC(/C=C/[C@@H](C)[C@H]1CCC2C3CC=C4C[C@@H](O)CC[C@]4(C)C3CC[C@@]21C)C(C)C` (some centres not stated): the Kd was > 4 mM (inactive).

For `O=C(CO)N/N=C/c1ccccc1F`, the Kd is > 4 mM (inactive).

`CC(=O)CC1CCCCN1` (configuration not stated): the Kd is > 4 mM (inactive).

Consider `CCOc1cc(S(=O)(=O)N2CCOCC2)ccc1F`, for which the Kd was > 4 mM (inactive).

In the case of `O=C(CSc1ncccn1)Nc1nccs1`, the Kd is > 4 mM (inactive).

Regarding `O=C(Cc1c(F)cccc1Cl)Nc1ccncc1`, the Kd was > 4 mM (inactive).

As for `CCOC(=O)c1cc(C)[nH]n1`, the Kd is > 4 mM (inactive).

As to `C=C1C2CC[C@@]3(C)[C@H](c4ccoc4)OC(=O)C[C@]13O[C@H]1CC(=O)C(C)(C)[C@H](C(OC(C)=O)C(=O)OC)[C@@]21C` (some centres not stated), the Kd is > 4 mM (inactive).

As to `O=C(Nc1ncccn1)c1cccc(F)c1`, the Kd was > 4 mM (inactive).

Consider `CC1O[C@@H](Oc2c(-c3ccc(O)c(O)c3)oc3cc(O)cc(O)c3c2=O)[C@H](O)[C@H](O)[C@H]1O` (some centres not stated), for which the Kd was > 4 mM (inactive).

For `Nc1nc2ccc(S(N)(=O)=O)cc2s1`, the Kd is > 4 mM (inactive).

`COc1cc2c(cc1OC)-c1nnnn1C(C)(C)C2`: the Kd is > 4 mM (inactive).

Turning to `CCCCCC/C=C\CCCCCCCc1cccc(O)c1C(=O)O`, the Kd was > 4 mM (inactive).

As to `CC(=O)Oc1ccc(N2C(=O)C3C4C=CC(O4)C3C2=O)cc1` (configuration not stated), the Kd is > 4 mM (inactive).

In the case of `O=C(O)CCCCCCCCCCCCC1C=CCC1` (configuration not stated), the Kd was > 4 mM (inactive).

In the case of `Cc1cc(=O)n(CCc2ccccc2)c(O)c1C#N`, the Kd was > 4 mM (inactive).

In the case of `Cc1csc(NC(=O)c2ccoc2C)n1`, the Kd is > 4 mM (inactive).

Take `c1ccc(CCc2nc(-c3ccncc3)no2)cc1`: the Kd was > 4 mM (inactive).

Consider `O=C(O)C1CC(=O)N(Cc2ccco2)C1` (configuration not stated), for which the Kd is > 4 mM (inactive).

`O=C(O)c1ccc2occc2c1`: the Kd was > 4 mM (inactive).

For the compound `O=C(O)CCCNC(=O)c1ccccc1C(=O)O`, the Kd is > 4 mM (inactive).

Take `CC1=[N+]([O-])C2(N)CCc3c(no[n+]3[O-])C2(O)C1` (configuration not stated): the Kd was > 4 mM (inactive).

Turning to `COc1cc2cc3c4cc(OC)c(OC)cc4cc[n+]3c(C)c2cc1OC`, the Kd is > 4 mM (inactive).

As to `CCOc1cc(S(=O)(=O)n2nc(C)cc2C)ccc1F`, the Kd is > 4 mM (inactive).

In the case of `O=C(NCc1ccco1)c1cccc(F)c1`, the Kd is > 4 mM (inactive).

For `CCCCCCCCCCCC[C@H](C(=O)O)[C@@H](C)C(=O)O`, the Kd is > 4 mM (inactive).

Turning to `CSc1ccc(/C=c2\sc3ncnn3c2=O)cc1`, the Kd was > 4 mM (inactive).

Take `CN(C)N1C(=O)c2ccccc2C1=O`: the Kd was > 4 mM (inactive).

Turning to `CC(=O)Nc1ccc2c(c1)n(C)c(=O)n2C`, the Kd is > 4 mM (inactive).

As for `CCOC(=O)c1csc(C)n1`, the Kd was > 4 mM (inactive).

In the case of `COc1cc(S(=O)(=O)Nc2cccnc2)ccc1F`, the Kd was > 4 mM (inactive).

With `COc1ccc(N=C2NC(=O)CS2)cc1`, the Kd is > 4 mM (inactive).
